Where “and” joins values, the source holds several entries; their conditions need not be identical. Equal values may be shown once. Inconclusive results and toxic doses are left out.
System: L1210 leukemia ip in BDF1 mice, survival T/C
Assay: NCI In Vivo Anticancer Drug Screen. Data for tumor model L1210 Leukemia (intraperitoneal) in B6D2F1 (BDF1) mice
Conditions: endpoint: mean survival time, higher = longer survival
In short: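 Tumor was transplanted into mice, which were then dosed with test compound or vehicle alone. Survival was recorded for each group, and the treated figure was expressed relative to the control figure.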

[1] = dose: 100.0 mg/kg/injection, schedule: Q01DX001 (ip), vehicle: Klucel (hydroxypropylcellulose) (HPC)
[2] = dose: 200.0 mg/kg/injection, schedule: Q01DX001 (ip), vehicle: Klucel (hydroxypropylcellulose) (HPC)
[3] = dose: 100.0 mg/kg/injection, schedule: Q01DX001 (ip), vehicle: saline
[4] = dose: 200.0 mg/kg/injection, schedule: Q01DX001 (ip), vehicle: saline
[5] = dose: 400.0 mg/kg/injection, schedule: Q01DX001 (ip), vehicle: saline
[6] = dose: 100.0 mg/kg/injection, schedule: Q01DX009 (ip), vehicle: saline with Tween-80
[7] = dose: 100.0 mg/kg/injection, schedule: Q04DX003 (ip), vehicle: saline
[8] = dose: 200.0 mg/kg/injection, schedule: Q04DX003 (ip), vehicle: saline
[9] = dose: 100.0 mg/kg/injection, schedule: Q01DX009 (ip), vehicle: Klucel (hydroxypropylcellulose) (HPC)
[10] = dose: 100.0 mg/kg/injection, schedule: Q04DX003 (ip), vehicle: Klucel (hydroxypropylcellulose) (HPC)
[11] = dose: 200.0 mg/kg/injection, schedule: Q04DX003 (ip), vehicle: Klucel (hydroxypropylcellulose) (HPC)
[12] = dose: 400.0 mg/kg/injection, schedule: Q04DX003 (ip), vehicle: Klucel (hydroxypropylcellulose) (HPC)

## Nc1ccc(Cl)cc1Br
dose: 50.0 mg/kg/injection, schedule: Q01DX009 (ip), vehicle: acetone
  T/C: 95 % of control
dose: 100.0 mg/kg/injection, schedule: Q01DX009 (ip), vehicle: acetone
  T/C: 92 % of control
dose: 100.0 mg/kg/injection, schedule: Q04DX003 (ip), vehicle: acetone
  T/C: 96 % of control
dose: 200.0 mg/kg/injection, schedule: Q01DX009 (ip), vehicle: acetone
  T/C: 90 % of control
dose: 200.0 mg/kg/injection, schedule: Q04DX003 (ip), vehicle: acetone
  T/C: 100 % of control
dose: 400.0 mg/kg/injection, schedule: Q04DX003 (ip), vehicle: acetone
  T/C: 96 % of control

## NC(=O)c1c2n(c3ncnc(N)c13)C1OC(CO)C(O)C1S2 (stereo not drawn)
dose: 25.0 mg/kg/injection, schedule: Q01DX009 (ip), vehicle: water
  T/C: 91 % of control
dose: 50.0 mg/kg/injection, schedule: Q01DX009 (ip), vehicle: water
  T/C: 91 % of control

## Cc1c(I)sc(I)c1I
dose: 100.0 mg/kg/injection, schedule: Q01DX001 (ip), vehicle: carboxymethylcellulose (CMC)
  T/C: 94 % of control
dose: 200.0 mg/kg/injection, schedule: Q01DX001 (ip), vehicle: carboxymethylcellulose (CMC)
  T/C: 94 % of control
dose: 400.0 mg/kg/injection, schedule: Q01DX001 (ip), vehicle: carboxymethylcellulose (CMC)
  T/C: 100 % of control

## CCOC(=O)c1ccc(N)cc1C(=O)OCC
[1]
  T/C: 93 % of control
[2]
  T/C: 95 % of control
dose: 400.0 mg/kg/injection, schedule: Q01DX001 (ip), vehicle: Klucel (hydroxypropylcellulose) (HPC)
  T/C: 87 % of control

## CCCCCCCCCCOC(=S)S
dose: 50.0 mg/kg/injection, schedule: Q04DX002 (sc), vehicle: olive oil, sesame oil, peanut oil
  T/C: 100 % of control
dose: 100.0 mg/kg/injection, schedule: Q04DX002 (sc), vehicle: olive oil, sesame oil, peanut oil
  T/C: 116 % of control
dose: 200.0 mg/kg/injection, schedule: Q04DX002 (sc), vehicle: olive oil, sesame oil, peanut oil
  T/C: 106 % of control

## CCCC(CNC1CCCCC1)OC(=O)c1ccc(N)cc1 (stereo not drawn)
dose: 75.0 mg/kg/injection, schedule: Q01DX001 (ip), vehicle: other
  T/C: 96 % of control

## CC(C)CCc1c(N)nc(NCCCc2ccccc2)nc1N
[1]
  T/C: 91 % of control
[2]
  T/C: 103 % of control

## O=C(CCCC(=O)N/N=C/C=C/c1ccccc1)N/N=C/C=C\c1ccccc1
dose: 50.0 mg/kg/injection, schedule: Q01DX001 (ip), vehicle: saline
  T/C: 87 % of control
[3]
  T/C: 110 % of control
[4]
  T/C: 93 % of control
[5]
  T/C: 97 % of control

## O=C(Nc1cc(C(F)(F)F)ccc1Cl)c1ccccc1F
dose: 100.0 mg/kg/injection, schedule: Q04DX002 (ip), vehicle: saline with Tween-80
  T/C: 102 % of control
dose: 200.0 mg/kg/injection, schedule: Q04DX002 (ip), vehicle: saline with Tween-80
  T/C: 102 % of control
dose: 400.0 mg/kg/injection, schedule: Q04DX002 (ip), vehicle: saline with Tween-80
  T/C: 108 % of control

## C=CN1CCCC1=O (tested in a mixture with another compound)
[3]
  T/C: 101 % of control [middle of 4 runs]
[6]
  T/C: 92 % of control and 97 % of control
[4]
  T/C: 101 % of control [middle of 4 runs]
dose: 200.0 mg/kg/injection, schedule: Q01DX009 (ip), vehicle: saline with Tween-80
  T/C: 93 % of control and 100 % of control
[5]
  T/C: 101 % of control and 89 % of control and 98 % of control
dose: 400.0 mg/kg/injection, schedule: Q01DX009 (ip), vehicle: saline with Tween-80
  T/C: 93 % of control and 96 % of control

## Cc1cccc2c(Nc3ccc(NS(C)(=O)=O)cc3)c3ccccc3nc12
dose: 2.5 mg/kg/injection, schedule: Q01DX009 (ip), vehicle: Klucel (hydroxypropylcellulose) (HPC)
  T/C: 115 % of control
dose: 5.0 mg/kg/injection, schedule: Q01DX009 (ip), vehicle: Klucel (hydroxypropylcellulose) (HPC)
  T/C: 115 % of control
dose: 10.0 mg/kg/injection, schedule: Q01DX009 (ip), vehicle: Klucel (hydroxypropylcellulose) (HPC)
  T/C: 117 % of control
dose: 10.0 mg/kg/injection, schedule: Q01DX009 (ip), vehicle: saline with Tween-80
  T/C: 120 % of control
dose: 10.0 mg/kg/injection, schedule: Q01DX009 (sc), vehicle: saline
  T/C: 112 % of control
dose: 20.0 mg/kg/injection, schedule: Q01DX001 (ip), vehicle: saline with Tween-80
  T/C: 121 % of control
dose: 20.0 mg/kg/injection, schedule: Q01DX009 (ip), vehicle: Klucel (hydroxypropylcellulose) (HPC)
  T/C: 224 % of control
dose: 20.0 mg/kg/injection, schedule: Q01DX009 (ip), vehicle: saline with Tween-80
  T/C: 166 % of control
dose: 20.0 mg/kg/injection, schedule: Q01DX009 (sc), vehicle: saline
  T/C: 110 % of control
dose: 40.0 mg/kg/injection, schedule: Q01DX001 (ip), vehicle: saline with Tween-80
  T/C: 117 % of control
dose: 40.0 mg/kg/injection, schedule: Q01DX009 (ip), vehicle: Klucel (hydroxypropylcellulose) (HPC)
  T/C: 103 % of control
dose: 40.0 mg/kg/injection, schedule: Q01DX009 (ip), vehicle: saline with Tween-80
  T/C: 178 % of control
dose: 40.0 mg/kg/injection, schedule: Q01DX009 (sc), vehicle: saline
  T/C: 113 % of control
dose: 40.0 mg/kg/injection, schedule: Q04DX003 (ip), vehicle: saline with Tween-80
  T/C: 159 % of control
dose: 80.0 mg/kg/injection, schedule: Q01DX009 (ip), vehicle: saline with Tween-80
  T/C: 116 % of control
dose: 80.0 mg/kg/injection, schedule: Q04DX003 (ip), vehicle: Klucel (hydroxypropylcellulose) (HPC)
  T/C: 164 % of control
dose: 80.0 mg/kg/injection, schedule: Q04DX003 (ip), vehicle: saline with Tween-80
  T/C: 151 % of control
[7]
  T/C: 123 % of control
dose: 160.0 mg/kg/injection, schedule: Q04DX003 (ip), vehicle: Klucel (hydroxypropylcellulose) (HPC)
  T/C: 206 % of control
dose: 160.0 mg/kg/injection, schedule: Q04DX003 (ip), vehicle: saline with Tween-80
  T/C: 168 % of control
[8]
  T/C: 167 % of control
dose: 400.0 mg/kg/injection, schedule: Q04DX003 (ip), vehicle: saline
  T/C: 94 % of control

## Nc1ccc(CC(=O)NC(CCC(=O)O)C(=O)O)cc1 (stereo not drawn)
dose: 100.0 mg/kg/injection, schedule: Q04DX002 (ip), vehicle: saline
  T/C: 103 % of control
dose: 200.0 mg/kg/injection, schedule: Q04DX002 (ip), vehicle: saline
  T/C: 91 % of control
dose: 400.0 mg/kg/injection, schedule: Q04DX002 (ip), vehicle: saline
  T/C: 100 % of control

## O=C1CC2c3ccccc3C1C1C(=O)OC(=O)C21 (stereo not drawn)
dose: 25.0 mg/kg/injection, schedule: Q01DX009 (ip), vehicle: Klucel (hydroxypropylcellulose) (HPC)
  T/C: 94 % of control
dose: 50.0 mg/kg/injection, schedule: Q01DX009 (ip), vehicle: Klucel (hydroxypropylcellulose) (HPC)
  T/C: 105 % of control
[3]
  T/C: 102 % of control
[9]
  T/C: 112 % of control
dose: 100.0 mg/kg/injection, schedule: Q01DX009 (ip), vehicle: saline
  T/C: 96 % of control
[10]
  T/C: 107 % of control
[7]
  T/C: 100 % of control
[4]
  T/C: 98 % of control
[11]
  T/C: 100 % of control
[8]
  T/C: 91 % of control
[5]
  T/C: 93 % of control
[12]
  T/C: 109 % of control

## C1=CCOCOC1
dose: 12.5 mg/kg/injection, schedule: Q01DX009 (ip), vehicle: saline with Tween-80
  T/C: 97 % of control
dose: 25.0 mg/kg/injection, schedule: Q01DX009 (ip), vehicle: saline with Tween-80
  T/C: 94 % of control
dose: 50.0 mg/kg/injection, schedule: Q01DX009 (ip), vehicle: saline with Tween-80
  T/C: 97 % of control
[6]
  T/C: 113 % of control

## NC(=O)N/N=C1\CCCC(OC(=O)c2ccccc2)CC1 (stereo not drawn)
[9]
  T/C: 97 % of control
[10]
  T/C: 97 % of control
dose: 200.0 mg/kg/injection, schedule: Q01DX009 (ip), vehicle: Klucel (hydroxypropylcellulose) (HPC)
  T/C: 97 % of control
[11]
  T/C: 102 % of control
dose: 400.0 mg/kg/injection, schedule: Q01DX009 (ip), vehicle: Klucel (hydroxypropylcellulose) (HPC)
  T/C: 94 % of control
[12]
  T/C: 96 % of control

## CCOC(=O)C1(c2cc(NS(=O)(=O)c3ccccc3)ccc2O)CCCCC1=O (stereo not drawn)
dose: 50.0 mg/kg/injection, schedule: Q01DX001 (ip), vehicle: saline sonified
  T/C: 97 % of control
dose: 100.0 mg/kg/injection, schedule: Q01DX001 (ip), vehicle: saline sonified
  T/C: 93 % of control
dose: 200.0 mg/kg/injection, schedule: Q01DX001 (ip), vehicle: saline sonified
  T/C: 94 % of control

From PubChem BioAssay AID248 (DTP/NCI, 2004)
